Results reported in patent US20250171490A1, “DHEA-DERIVED STEROIDS” (DEBRECENI EGYETEM, priority 2022, published 2025).
“And” between values parts separate entries of the source, which are not always exact repeats. Equal entries are not always repeated. “Also recorded” adds a separate entry of the source.

Experiments:
Type in all cases: in vivo
ApoE^−/− mice [1] = test: Survival of ApoE−/− mice during treatment; settings: atherogenic diet; for survival / mortality of mice / mouse death before the end of the experiment: 8 weeks treatment
Source text: (§1) All the animal experiments were approved by the guidelines from Directive 2010/63/EU of the European Parliament on the protection of animals used for scientific purposes. Animal experiments performed in this study were approved by the Scientific and Research Ethics Committee of the Scientific Council of Health of the Hungarian Government under the registration number of DE MÁB/157-5/2010 and are reported in accordance with the ARRIVE guidelines. C57BL/6 ApoE^−/− mice (The Jackson Laboratory; B6.129P2 Apoetm1Unc/J; RRID: IMSR_JAX: 002052) were maintained at the University of Debrecen under specific pathogen-free conditions in accordance with guidelines from Institutional Ethical Committee. To induce atherosclerotic plaque formation, standard chow diet was changed to atherogenic diet (15% fat, 1.25% cholesterol, ssniff Spezialdiäten GmbH, Soest, Germany) at the age of 8 weeks. Mice were randomly divided into two groups and parallelly with the atherogenic diet, mice received tap-water or DHEA-derived steroid (100 μg steroid/mouse/day) in tap-water. The DHEA-derived steroid was replaced every day. Aortas were harvested after 8 weeks of treatment. All mice were euthanized by a predictable and controllable administering of slow-fill compressed CO2 asphyxiation. Atherogenic food composition (high-fat diet): Crude Nutrients (%): Crude Protein 19%; crude fat 15.2%; crude fiber 3.4%; crude ash 6.3%; starch 25.6%; sugar 11.2%; Additives (per kg): vitamin A 15,000 IU; vitamin D3 1,000 IU; vitamin E 110 mg; vitamin K3 5 mg; vitamin C 0 mg; copper 13 mg.

ApoE^−/− mice [2] = test: Atherosclerotic plaque formation in ApoE−/− mice on atherogenic diet, en face Oil Red O staining of whole aorta (preventive treatment); settings: 100 μg steroid/mouse/day in tap-water, 8 weeks, vs tap water control
Source text: as §1
(§2) Aortas were dissected from the aortic arch to the iliac bifurcation. After that, the fatty tissue was carefully removed under a stereomicroscope (M125; Leica Biosystems Nussloch GmbH). […] 0.07 g ORO powder was dissolved in 25 mL methanol and mixed for 10 min on a magnetic stirrer. Finally, 10 mL 1 mol/L NaOH was added to the ORO solution and filtered it. Images were taken with the camera (Nikon D3200; Nikon Corp., Japan) and whole aorta plaque area was analyzed with ImageJ 1.49 software.

H2S = test: Sulfide (H2S) level of mice plasma, zinc precipitation assay
Source text: as §1
Sulfide levels were measured with zinc precipitation method based upon developed by Gilboa-Garber [Gilboa-Garber N. 1971] and modified by A. D. Ang et al. [Ang A D, et al. 2012]. The human carotid artery was homogenized under liquid nitrogen in 7.4 pH PBS and sonicated it. […] After 10 min the absorbance of the generated methylene blue (MB) was measured with a spectrophotometer at 667 nm. Since during the reaction 1 mol/L MB formed from 1 mol/L sulfide, the concentration was determined by the MB's extinction coefficient (30 200 M 1 cm 1). […]

ApoE^−/− mice [3] = test: Aortic valve calcification in ApoE−/− mice on high-fat diet, von Kossa staining (preventive treatment); settings: 8 weeks; for calcification / mineralization of aortic valve (von Kossa): treatment in drinking water, vs tap water
Source text: as §1
(§3) Immunohistochemistry from the aortic root was performed on formalin-fixed, paraffin-embedded tissue sections. 4 μm slides were then deparaffinated using xylol and ethanol. The serial sections were stained with Gill Hematoxylin solution (Merck) followed by eosin counterstaining or with von Kossa. For digital documentation, the stained specimens were scanned with a Mirax Midi scanner (3D Histech, Budapest, Hungary). Macroscopic pictures of the arteries were taken with Nikon D3200 camera (Nikon Corp.; Minato, Tokyo, Japan).

ApoE^−/− mice [4] = test: Reversal of already formed atherosclerotic lesion in ApoE−/− mice, Oil Red O (therapeutic treatment); settings: for already formed atherosclerotic lesion (plaque size, Oil Red O): atherogenic diet 4 or 6 weeks, then chop diet plus S2 in water for 4 or 8 weeks, vs tap water, sodium salt
Source text: (§4) In the further part of the present work, it was examined whether the compounds of the invention have positive therapeutic effect, too. In the above-mentioned animal model, the present inventors developed during eight weeks real atherosclerosis, and for an additional eight weeks animals were given S2 compound (100 micrograms per day per animal). Control mice got pure drinking water. At the end of experiment the size and number of sclerotic plaques, the calcification of heart valves and the amount of hydrogen sulfide was measured. […] This means the compounds of the invention have not only preventive, but also therapeutic effect.
as §2
(§5) From a pharmacological point of view to the best of inventors' knowledge, there is no medicine in the market to reverse atherosclerosis and calcification of vessels. Current drugs only slow down the progression of atherosclerosis. Therefore, the present inventors examined the possibility of S2 steroid treatment to reverse the already formed atherosclerotic lesion and calcification. In this experiment the present inventors kept the mice on atherogenic diet for 4 or 6 weeks for development of atherosclerotic lesion and calcification. After that the present inventors changed the atherogenic diet to chop diet and they added S2 steroid to the mice's water for 4 weeks and 8 weeks. Control group got tap water only.

ApoE^−/− mice [5] = test: Reversal of already formed aortic valve calcification in ApoE−/− mice, von Kossa (therapeutic treatment); settings: for already formed aortic valve extracellular matrix mineralization (von Kossa): high-fat diet 6 weeks, then chop diet plus S2 in tap water for 4 weeks, vs tap water, sodium salt
Source text: as §4, §3, §5

[6] = atherosclerosis developed during eight weeks, then 100 micrograms per day per animal for additional eight weeks, vs drinking water
[7] = listed as DHEA-derived steroid, sodium salt
[8] = listed as DHEA-derived S2 steroid

| Molecule | survival / mortality of mice (ApoE^−/− mice [1]) | atherosclerotic plaque formation / area of atherosclerotic lesion (Oil Red O, whole aorta) (ApoE^−/− mice [2]; sodium salt) | calcification / mineralization of aortic valve (von Kossa) (ApoE^−/− mice [3]) | day of the treatment regime on which the first treated animal died (ApoE^−/− mice [1]) [days] | mouse death before the end of the experiment (ApoE^−/− mice [1]) | atherosclerotic plaque formation / area of atherosclerotic lesion (Oil Red O, whole aorta) (ApoE^−/− mice [2]) | also measured |
| --- | --- | --- | --- | --- | --- | --- | --- |
| CCCCCC(=O)OC1CC[C@H]2[C@@H]3CC=C4CC(OS(=O)(=O)[O-])CC[C@]4(C)[C@H]3CC[C@]12C.[Na+] (some centres unmarked) [C6, 17-hexanoyloxy-5-androstene-3-sulfate sodium salt] | survived | fail to inhibit atherosclerosis; also recorded: not Able to Abrogate Atherosclerotic Plaque Formation |  |  |  |  |  |
| CCCCCCCCCCCC(=O)OC1CC[C@H]2[C@@H]3CC=C4CC(OS(=O)(=O)[O-])CC[C@]4(C)[C@H]3CC[C@]12C.[Na+] (some centres unmarked) [S2, 17-lauroyloxy-5-androstene-3-sulphate sodium salt] | survived | highly efficient both in the prevention and reversal of atherosclerosis |  |  |  |  | H2S content of mice plasma (H2S; ApoE−/− mice, steroid treated vs tap-water): elevates H2S content of the mice plasma; plasma H2S concentration compared to control mice plasma (H2S; ApoE−/− mice, steroid treated vs tap-water, normalized to protein content): approximately 2.4 times; concentration of hydrogen sulfide (H2S; [6]): significantly higher; lower mineralized area of aortic valves calcification nodules compared to tap-water mice (ApoE^−/− mice [3]; steroid in drinking water): 91.2%; calcification / mineralization of aortic valve (von Kossa) (ApoE^−/− mice [3]; [7]): decreases the expansion of the extracellular matrix; also recorded: significantly inhibited the development of calcific nodules in aortic valves; already formed atherosclerotic lesion (plaque size, Oil Red O) (ApoE^−/− mice [4]; [8]): reverses atherosclerosis; already formed atherosclerotic lesion (plaque size, Oil Red O) (ApoE^−/− mice [4]): significantly lesser atherosclerotic lesion; size and number of sclerotic plaques (ApoE^−/− mice [4]; [6]): significantly less; calcification of heart valves (ApoE^−/− mice [5]; [6]): significantly less; already formed aortic valve extracellular matrix mineralization (von Kossa) (ApoE^−/− mice [5]; [8]): reverses atherosclerosis and aortic valve calcification; already formed aortic valve extracellular matrix mineralization (von Kossa) (ApoE^−/− mice [5]): significant lesser extracellular matrix mineralization; atherosclerotic plaque formation / area of atherosclerotic lesion (Oil Red O, whole aorta) (ApoE^−/− mice [2]; [7]): inhibits atherosclerosis; also recorded: significantly lesser area of atherosclerotic lesion |
| CCCCCCCCCCCCCCCC(=O)OC1CC[C@H]2[C@@H]3CC=C4CC(OS(=O)(=O)[O-])CC[C@]4(C)[C@H]3CC[C@]12C.[Na+] (some centres unmarked) [C16, 17-palmitoyloxy-5-androstene-3-sulfate sodium salt] | survived | fail to inhibit atherosclerosis; also recorded: not Able to Abrogate Atherosclerotic Plaque Formation |  |  |  |  |  |
| Dehydroepiandrosterone sulfate [DHEA-S] | elevated mortality rate of the animals |  | cannot decrease the mineralization of extracellular matrix of aortic valve; also recorded: Failed to Prevent Calcification of Aortic Valve | 55 | 22% and 28.6% | fail to inhibit atherosclerosis; also recorded: not Able to Abrogate Atherosclerotic Plaque Formation | atherosclerotic plaque formation / area of atherosclerotic lesion (Oil Red O, whole aorta) (ApoE^−/− mice [2]; listed as DHEAS): did not diminish the development of atherosclerosis |
| C[C@]12CC[C@H](O)CC1=CC[C@@H]1[C@@H]2CC[C@]2(C)C(=O)CC[C@@H]12 [DHEA, Dehydroepiandrosterone] | elevated mortality rate of the animals |  | cannot decrease the mineralization of extracellular matrix of aortic valve; also recorded: Failed to Prevent Calcification of Aortic Valve | 50 | 45% and 45.5% | fail to inhibit atherosclerosis; also recorded: did not diminish the development of atherosclerosis; also recorded: not Able to Abrogate Atherosclerotic Plaque Formation |  |
